Experimental data: patent US20230190685A1, “FORMULATION” (UNION Therapeutics A/S, priority 2020, published 2023)
Where “and” joins values, the source holds several entries; their conditions need not be identical. Equal entries are not always repeated.

Columns and labels:
[1] = system: SARS-CoV-2; settings: Vero E6 cells; Wang et al. 2020; read-out: EC50 against SARS-CoV-2; cited from earlier work
[2] = system: healthy volunteers; settings: human, in vivo
[3] = system: VeroE6 cells
[4] = system: Caco-2 cells
[5] = Phase 1 trial of inhaled niclosamide, safety and PK; settings: human, blood, inhaled, 6 mL of 1% formulation
[6] = system: healthy volunteers; assay: as above; settings: after repeated inhalation doses; raw data
[7] = system: ATCC 29213 (A), MRSA 434844 (B) and S. aureus Newman (C); assay: Spot test on LB agar, all three strains; format: cell-based; settings: for effect on bacterial load, API in DMSO: repeat spot test, only highest concentration (niclosamide 100 µg/mL, oxyclozanide 40 µg/mL)
Method: Following incubation, the formed colonies were counted. […] Duplicates were performed.
As both positive controls were negative further the experiment was repeated using different concentrations in a spot test using the same methodology described above.
In this experiment the negative control was the bacterial suspension only.

[8] = in vivo
[9] = system: SARS-CoV; settings: cited from earlier work
[10] = cited from earlier work
[11] = system: asthmatic mice; settings: dissolved in corn oil, I.P. injection; cited from earlier work
[12] = target: T1, TMEM16A (Homo sapiens, UniProt Q5XXA6); settings: Cabrita et al. 2019; cited from earlier work
T1 sequence (Q5XXA6 1-986): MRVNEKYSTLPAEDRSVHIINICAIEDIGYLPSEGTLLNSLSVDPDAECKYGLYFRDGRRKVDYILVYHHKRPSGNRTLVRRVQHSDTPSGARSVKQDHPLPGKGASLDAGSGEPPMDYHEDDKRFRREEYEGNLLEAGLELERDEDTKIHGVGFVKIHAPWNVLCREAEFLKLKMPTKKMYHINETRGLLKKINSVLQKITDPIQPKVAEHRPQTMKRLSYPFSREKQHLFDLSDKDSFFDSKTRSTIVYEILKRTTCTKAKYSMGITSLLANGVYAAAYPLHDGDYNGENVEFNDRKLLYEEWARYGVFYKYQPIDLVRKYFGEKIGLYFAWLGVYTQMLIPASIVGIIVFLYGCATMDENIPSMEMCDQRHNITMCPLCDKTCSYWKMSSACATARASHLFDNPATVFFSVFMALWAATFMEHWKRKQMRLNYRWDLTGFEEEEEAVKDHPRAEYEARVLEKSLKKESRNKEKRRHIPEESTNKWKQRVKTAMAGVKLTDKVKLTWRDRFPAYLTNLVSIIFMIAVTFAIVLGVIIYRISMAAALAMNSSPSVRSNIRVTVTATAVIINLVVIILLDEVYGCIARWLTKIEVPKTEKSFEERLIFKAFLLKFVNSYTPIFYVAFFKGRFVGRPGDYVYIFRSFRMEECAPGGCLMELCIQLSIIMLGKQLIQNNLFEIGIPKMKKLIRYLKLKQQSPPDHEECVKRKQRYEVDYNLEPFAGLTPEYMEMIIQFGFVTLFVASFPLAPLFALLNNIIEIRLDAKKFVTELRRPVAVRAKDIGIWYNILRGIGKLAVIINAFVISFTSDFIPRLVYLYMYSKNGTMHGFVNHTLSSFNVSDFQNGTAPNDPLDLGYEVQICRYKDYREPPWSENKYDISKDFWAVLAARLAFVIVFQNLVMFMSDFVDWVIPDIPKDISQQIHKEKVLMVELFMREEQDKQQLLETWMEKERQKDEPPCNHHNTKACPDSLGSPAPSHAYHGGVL

[13] = target: T2, TMEM16F (Homo sapiens, UniProt Q4KMQ2); settings: Cabrita et al. 2019; cited from earlier work
T2 sequence (Q4KMQ2 1-910): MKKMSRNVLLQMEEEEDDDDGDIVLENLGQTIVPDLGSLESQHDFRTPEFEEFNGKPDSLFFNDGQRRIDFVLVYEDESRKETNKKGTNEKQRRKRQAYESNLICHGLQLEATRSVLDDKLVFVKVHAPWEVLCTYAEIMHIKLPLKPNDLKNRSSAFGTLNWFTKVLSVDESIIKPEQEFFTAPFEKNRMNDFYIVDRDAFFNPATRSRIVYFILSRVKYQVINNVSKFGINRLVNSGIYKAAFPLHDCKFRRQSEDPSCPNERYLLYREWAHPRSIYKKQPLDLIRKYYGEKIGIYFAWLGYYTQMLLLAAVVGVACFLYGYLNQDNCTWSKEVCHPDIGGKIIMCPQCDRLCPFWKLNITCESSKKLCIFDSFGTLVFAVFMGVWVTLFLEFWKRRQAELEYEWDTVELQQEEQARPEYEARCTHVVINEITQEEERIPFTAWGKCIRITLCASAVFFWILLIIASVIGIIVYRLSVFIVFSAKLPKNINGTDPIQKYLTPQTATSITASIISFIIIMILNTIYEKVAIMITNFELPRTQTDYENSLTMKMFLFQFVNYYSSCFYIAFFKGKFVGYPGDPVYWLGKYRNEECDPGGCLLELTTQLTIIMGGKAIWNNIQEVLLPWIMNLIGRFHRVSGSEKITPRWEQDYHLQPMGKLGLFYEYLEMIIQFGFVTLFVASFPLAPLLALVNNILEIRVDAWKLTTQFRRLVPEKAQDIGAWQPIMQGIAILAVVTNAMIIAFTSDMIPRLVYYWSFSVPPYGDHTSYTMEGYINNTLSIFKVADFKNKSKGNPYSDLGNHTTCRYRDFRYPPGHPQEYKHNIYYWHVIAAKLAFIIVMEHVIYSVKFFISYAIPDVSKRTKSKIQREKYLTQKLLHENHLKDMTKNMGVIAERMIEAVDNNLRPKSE

CCN(CC)CCCC(C)Nc1ccnc2cc(Cl)ccc12 (stereo not shown) [chloroquine]
EC50 [1]: 1130 nM

O=C(Nc1ccc([N+](=O)[O-])cc1Cl)c1cc(Cl)ccc1O [niclosamide ethanolamine]
AUC0-8, mean [2]: 509.0 ng·h/mL
maximum plasma concentration (Cmax), mean [2]: 238.9 ng/mL
CC50 [3]: > 10000 nM
CC50 [4]: > 10000 nM
half-life ([5]; repeated): 2.7 h
half-life ([5]; single dose): 2 h
peak concentration in blood (range) [6]: 29 to 506 ng/mL

O=C(Nc1ccc([N+](=O)[O-])cc1Cl)c1cc(Cl)ccc1O [niclosamide]
effect on bacterial load, API in DMSO [7]: substantially decreased the bacterial load
efficacy margin, mean systemic exposure of human oral dose to IC90 against SARS-CoV-2 [8]: 8 fold
concentration suppressing cytopathic effect (CPE) of SARS-CoV (as low as) [9]: 1 µm
concentration that totally abolished viral antigen synthesis [9]: 1.56 µm
EC50 ([9]; read-out: EC50 of SARS-CoV replication): < 100 nM
administered dose detected in the urine (minimum level of absorption) ([10]; after oral administration): 2-25%
maximal serum concentration of niclosamide ([10]; human volunteers, single oral dose of 2,000 mg): 0.25-6.0 µg/mL and 0.76 -18.3 µM
oral bioavailability (F) ([10]; oral): 10%
effect on mucus and bronchoconstriction in asthmatic mice [11]: reduced mucus production and secretion, as well as bronchoconstriction
inhibition of Cl- channel TMEM16A [12]: potent inhibitor
inhibition of Cl- channel TMEM16F [13]: potent inhibitor

CC(=O)Oc1ccccc1C(=O)Nc1ncc([N+](=O)[O-])s1 [nitazoxanide]
EC50 [1]: 2120 nM

O=C(Nc1cc(Cl)cc(Cl)c1O)c1c(O)c(Cl)cc(Cl)c1Cl [oxyclozanide, Oxyclozanide]
efficiency in reducing bacterial load of S. aureus ([7]; comparison of tested formulations): highest efficiency
effect on bacterial load, API in DMSO [7]: substantially decreased the bacterial load
